# Experimental data: patent US20240009166A1, “USE OF ZANAMIVIR IN PREPARATION OF DRUG FOR TREATING OR PREVENTING PREECLAMPSIA” (Shenzhen Evergreen Therapeutics Co., Ltd., priority 2020, published 2024)
# Entries after “also recorded” stand apart in the source; their conditions may differ.
# Experiments:
# Assay type in all cases: in vivo, CD-1 mice
# [1] = system: L-NAME-induced pre-eclampsia animal model; assay: Blood pressure on day 12 of gestation in L-NAME-induced pre-eclampsia model; conditions: days 1-18 of pregnancy, vs pregnancy model group
# Procedure: (§1) Pregnant CD-1 mice (age 8-10 weeks) were randomly divided into control and pre-eclampsia model groups. On days 7-16 of the gestational cycle, the model group mice were induced with preeclampsia by subcutaneous injection of 50 mg/kg of N-nitro-L-arginine methyl ester (L-NAME) daily. For the control group, an equal volume of the solvent was injected subcutaneously. [table] In animal models of L-NAME-induced pre-eclampsia, symptoms of hypertension appear two days after the first administration of L-NAME and persist until at least five days after the first administration of L-NAME, according to the literature. The appearance of proteinuric symptoms was relatively late. Therefore, in this experiment, we focused on monitoring the blood pressure of […] on day 12 of gestation (i.e., five days after the first administration of L-NAME), as well as collecting 24-hour urine on day 17-18 of gestation and measuring the level of total protein. Also, we recorded the number of pups produced by each group of pregnant rats.
# [2] = system: L-NAME-induced pre-eclampsia animal model; assay: 24-hour urinary total protein on days 17-18 of gestation in L-NAME-induced pre-eclampsia model; conditions: for L-NAME-induced 24-hour urinary protein elevation: vs pregnancy model group
# Procedure: as §1
# [3] = system: L-NAME-induced pre-eclampsia animal model; assay: Number of pups (litter size) in L-NAME-induced pre-eclampsia model
# Procedure: as §1
# [4] = 90 mg/kg tail vein injection daily
# [5] = 120 mg/kg tail vein injection daily
structure (smiles),measurement,setting,value
"CC(=O)N[C@H]1[C@H]([C@H](O)[C@H](O)CO)OC(C(=O)O)=C[C@@H]1N=C(N)N [zanamivir, 5-acetamido-4-[(aminoiminomethyl)-amino]-2,6-hydro-3,4,5-trideoxy-D-propanetriolyl-D-galactos-2-enolonic acid]",blood pressure,[1]; [4],did not significantly change
same,L-NAME-induced increase in diastolic blood pressure,[1]; [5],significantly reduced
same,L-NAME-induced increase in mean arterial pressure,[1]; [5],significantly reduced
same,L-NAME-induced increase in systolic blood pressure,[1]; [5],significantly reduced
same,L-NAME-induced 24-hour urinary protein elevation,[2]; [4],significantly reduced
same,L-NAME-induced 24-hour urinary protein elevation,[2]; [5],significantly reduced
same,L-NAME-induced elevation of 24-hour urinary protein,"[2]; FIG. 4 legend, dose not stated",significantly reduces
same,reduction of litter size caused by L-NAME,"[3]; 90 mg/kg tail vein injection daily, vs pregnancy model group",significantly improved
same,reduction of litter size caused by L-NAME,"[3]; 120 mg/kg tail vein injection daily, vs pregnancy model group",significantly improved; also recorded: returning to a level comparable to that of the pregnant control group
same,reduction of litter size caused by L-NAME,"[3]; FIG. 5 legend, dose not stated",significantly improved
